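Results reflect a 48-hour exposure of cells in 96-well plates to compound at five concentrations. GI50 marks 50% less growth. TGI denotes the concentration required for complete inhibition of growth.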
Tests used:
Test in all cases: DTP human tumour cell line panel, 48 h
[1] = system: CCRF-CEM leukemia
[2] = system: RXF 393 renal
[3] = system: EKVX NSCLC
[4] = system: HOP-92 NSCLC
[5] = system: SW-620 colon
[6] = system: COLO 205 colon
[7] = system: LOX IMVI melanoma
[8] = system: OVCAR-4 ovarian
[9] = system: MDA-MB-435
[10] = system: UACC-257 melanoma
[11] = system: HCC-2998 colon
[12] = system: NCI/ADR-RES ovarian
[13] = system: SK-MEL-5 melanoma
[14] = system: HCT-116 colon
[15] = system: SK-OV-3 ovarian
[16] = system: PC-3 prostate
[17] = system: K-562 leukemia
[18] = system: SNB-19 CNS
[19] = system: SF-268 CNS
[20] = system: SNB-75 CNS
[21] = system: MDA-MB-231 breast
[22] = system: OVCAR-5 ovarian
[23] = system: BT-549 breast
[24] = system: A549 NSCLC
[25] = system: HOP-62 NSCLC
[26] = system: SF-295 CNS
[27] = system: TK-10 renal
[28] = system: MALME-3M melanoma
[29] = system: SN12C renal
[30] = system: NCI-H226 lung
[31] = system: U251 CNS
[32] = system: OVCAR-8 ovarian
[33] = system: UO-31 renal
[34] = system: HT29 colon
[35] = system: MCF7 breast
[36] = system: NCI-H23 lung
[37] = system: DU-145 prostate
[38] = system: RPMI-8226 leukemia
[39] = system: SK-MEL-2 melanoma
[40] = system: 786-0 renal
[41] = system: UACC-62 melanoma
[42] = system: SK-MEL-28 melanoma
[43] = system: HS 578T breast
[44] = system: KM12 colon
[45] = system: NCI-H460 lung
[46] = system: NCI-H522 lung
[47] = system: MOLT-4 leukemia
[48] = system: HL-60(TB) leukemia
[49] = system: SF-539 CNS
[50] = system: ACHN renal
[51] = system: OVCAR-3 ovarian
[52] = system: IGROV1 ovarian
[53] = system: T-47D breast
[54] = system: CAKI-1 renal
[55] = system: HCT-15 colon
[56] = system: A498 renal
[57] = system: M14 melanoma

`CSc1ccc(C2=NN(C(C)=O)C(c3cc(C)cs3)C2)cc1` (centres undefined) showed a GI50 [1] of 26.7 µM, a TGI [1] greater than 100 µM and a GI50 [2] of 56.7 µM. For the same compound, the TGI [2] was greater than 100 µM, the GI50 [3] was 24.3 µM and the TGI [3] was greater than 100 µM. For the same compound, the GI50 [4] was 21.6 µM, the TGI [4] was 90.1 µM and the GI50 [5] was 38.2 µM. The TGI [5] was greater than 100 µM, the GI50 [6] was 17.3 µM and the TGI [6] was 35.8 µM. It also gave a GI50 [7] of 24.2 µM, a TGI [7] greater than 100 µM and a GI50 [8] of 18 µM. For the same compound, the TGI [8] was greater than 100 µM, the GI50 [9] was 23.4 µM and the TGI [9] was greater than 100 µM. For the same compound, the GI50 [10] was 28.4 µM, the TGI [10] was 96.1 µM and the GI50 [11] was 20 µM. The TGI [11] was greater than 100 µM, the GI50 [12] was 24.5 µM and the TGI [12] was greater than 100 µM. The GI50 [13] was 15.1 µM, the TGI [13] was 29.5 µM and the GI50 [14] was 20.4 µM. The TGI [14] was 66.1 µM, the GI50 [15] was 38.2 µM and the TGI [15] was greater than 100 µM. For the same compound, the GI50 [16] was 20.2 µM, the TGI [16] was 95.6 µM and the GI50 [17] was 9.31 µM. It also gave a TGI [17] greater than 100 µM, a GI50 [18] of 37 µM and a TGI [18] greater than 100 µM. For the same compound, the GI50 [19] was 35.6 µM, the TGI [19] was greater than 100 µM and the GI50 [20] was 22.1 µM. It also gave a TGI [20] greater than 100 µM, a GI50 [21] of 27.5 µM and a TGI [21] greater than 100 µM. The GI50 [22] was 44.4 µM, the TGI [22] was greater than 100 µM and the GI50 [23] was 17.1 µM. The TGI [23] was 63.7 µM, the GI50 [24] was 27.2 µM and the TGI [24] was greater than 100 µM. The GI50 [25] was 37.3 µM, the TGI [25] was greater than 100 µM and the GI50 [26] was 22.4 µM. It also gave a TGI [26] greater than 100 µM, a GI50 [27] of 26.9 µM and a TGI [27] greater than 100 µM. It also gave a GI50 [28] of 25.5 µM, a TGI [28] of 97.5 µM and a GI50 [29] of 26.2 µM. For the same compound, the TGI [29] was greater than 100 µM, the GI50 [30] was 21.8 µM and the TGI [30] was greater than 100 µM. For the same compound, the GI50 [31] was 32.8 µM, the TGI [31] was greater than 100 µM and the GI50 [32] was 32 µM. The TGI [32] was greater than 100 µM, the GI50 [33] was 19.9 µM and the TGI [33] was greater than 100 µM. It also gave a GI50 [34] of 24.9 µM, a TGI [34] greater than 100 µM and a GI50 [35] of 16.2 µM. It also gave a TGI [35] of 46.3 µM, a GI50 [36] of 29.9 µM and a TGI [36] greater than 100 µM. It also gave a GI50 [37] of 34.6 µM, a TGI [37] greater than 100 µM and a GI50 [38] of 15.3 µM. It also gave a TGI [38] greater than 100 µM, a GI50 [39] of 39 µM and a TGI [39] greater than 100 µM. For the same compound, the GI50 [40] was 40 µM, the TGI [40] was greater than 100 µM and the GI50 [41] was 11.2 µM. It also gave a TGI [41] of 98.4 µM, a GI50 [42] of 37 µM and a TGI [42] greater than 100 µM. For the same compound, the GI50 [43] was 22.3 µM, the TGI [43] was 88.6 µM and the GI50 [44] was 24 µM. For the same compound, the TGI [44] was greater than 100 µM, the GI50 [45] was 27.3 µM and the TGI [45] was greater than 100 µM. For the same compound, the GI50 [46] was 17.9 µM, the TGI [46] was 74.9 µM and the GI50 [47] was 7.26 µM. It also gave a TGI [47] of 44.1 µM, a GI50 [48] of 11.8 µM and a TGI [48] of 29.8 µM. The GI50 [49] was 39.8 µM, the TGI [49] was greater than 100 µM and the GI50 [50] was 30.1 µM. It also gave a TGI [50] greater than 100 µM, a GI50 [51] of 23.9 µM and a TGI [51] greater than 100 µM. The GI50 [52] was 29.7 µM, the TGI [52] was greater than 100 µM and the GI50 [53] was 13 µM. The TGI [53] was greater than 100 µM, the GI50 [54] was 28.4 µM and the TGI [54] was greater than 100 µM. For the same compound, the GI50 [55] was 24.6 µM and the TGI [55] was greater than 100 µM.

Compound `CCCCC/C(C=C(C#N)C#N)=C/c1ccccc1` has a GI50 [1] of 2.51 µM, a TGI [1] of 6.96 µM and a GI50 [2] of 5.82 µM. For the same compound, the TGI [2] was 22.3 µM, the GI50 [3] was 5.98 µM and the TGI [3] was greater than 55.7 µM. For the same compound, the GI50 [4] was 5.82 µM, the TGI [4] was 21.8 µM and the GI50 [5] was 3.12 µM. The TGI [5] was 10.9 µM, the GI50 [6] was 4.91 µM and the TGI [6] was 16.3 µM. For the same compound, the GI50 [7] was 2.17 µM, the TGI [7] was 5.47 µM and the GI50 [8] was 7.74 µM. The TGI [8] was greater than 55.8 µM, the GI50 [9] was 1.77 µM and the TGI [9] was 4.11 µM. The GI50 [10] was 17.2 µM, the TGI [10] was 47.6 µM and the GI50 [11] was 4.69 µM. For the same compound, the TGI [11] was 9.77 µM, the GI50 [12] was 2.48 µM and the TGI [12] was 6.46 µM. For the same compound, the GI50 [13] was 2.68 µM, the TGI [13] was 14.2 µM and the GI50 [14] was 1.95 µM. For the same compound, the TGI [14] was 4.46 µM, the GI50 [15] was 7.87 µM and the TGI [15] was 23.5 µM. For the same compound, the GI50 [16] was 3.13 µM, the TGI [16] was 12.2 µM and the GI50 [17] was 3.8 µM. For the same compound, the TGI [17] was 35.3 µM, the GI50 [18] was 6.53 µM and the TGI [18] was 21.8 µM. It also gave a GI50 [19] of 2.45 µM, a TGI [19] of 9.51 µM and a GI50 [20] of 12.4 µM. For the same compound, the TGI [20] was 27.7 µM, the GI50 [21] was 3.85 µM and the TGI [21] was 16.2 µM. For the same compound, the GI50 [22] was 4.11 µM, the TGI [22] was 10.7 µM and the GI50 [23] was 2.52 µM. The TGI [23] was 8.75 µM, the GI50 [24] was 8.95 µM and the TGI [24] was greater than 43.6 µM. The GI50 [25] was 6.98 µM, the TGI [25] was 17.4 µM and the GI50 [26] was 2.76 µM. It also gave a TGI [26] of 14.6 µM, a GI50 [27] of 6.54 µM and a TGI [27] of 42.9 µM. It also gave a GI50 [28] of 3.11 µM, a TGI [28] of 16.5 µM and a GI50 [29] of 3.74 µM. It also gave a TGI [29] of 16.9 µM, a GI50 [30] of 8.11 µM and a TGI [30] of 25.5 µM. For the same compound, the GI50 [31] was 3.03 µM, the TGI [31] was 14.1 µM and the GI50 [32] was 3.34 µM. It also gave a TGI [32] greater than 100 µM, a GI50 [56] of 9.72 µM and a TGI [56] of 23.2 µM. For the same compound, the GI50 [33] was 7.08 µM, the TGI [33] was 22.1 µM and the GI50 [34] was 3.61 µM. The TGI [34] was 12.3 µM, the GI50 [35] was 3.46 µM and the TGI [35] was 17.4 µM. The GI50 [36] was 3.62 µM, the TGI [36] was 13.6 µM and the GI50 [37] was 5.23 µM. It also gave a TGI [37] of 24.6 µM, a GI50 [57] of 2.45 µM and a TGI [57] of 7.29 µM. For the same compound, the GI50 [38] was 1.92 µM, the TGI [38] was 5.78 µM and the GI50 [39] was 17.4 µM. It also gave a TGI [39] of 41.3 µM, a GI50 [40] of 7.45 µM and a TGI [40] of 21.6 µM. For the same compound, the GI50 [41] was 2.84 µM, the TGI [41] was 11.9 µM and the GI50 [42] was 2.86 µM. For the same compound, the TGI [42] was 8.57 µM, the GI50 [43] was 1.87 µM and the TGI [43] was 4.76 µM. For the same compound, the GI50 [44] was 3.37 µM, the TGI [44] was 13.2 µM and the GI50 [45] was 3.22 µM. For the same compound, the TGI [45] was 12.2 µM, the GI50 [46] was 4.5 µM and the TGI [46] was 19.7 µM. It also gave a GI50 [47] of 2.37 µM, a TGI [47] of 6.98 µM and a GI50 [48] of 2.39 µM. For the same compound, the TGI [48] was 6.32 µM, the GI50 [49] was 5.17 µM and the TGI [49] was 17.7 µM. It also gave a GI50 [50] of 4.53 µM, a TGI [50] of 16.5 µM and a GI50 [51] of 2.26 µM. The TGI [51] was 11.2 µM, the GI50 [52] was 8.18 µM and the TGI [52] was 27.7 µM. The GI50 [53] was 4.93 µM, the TGI [53] was 26.1 µM and the GI50 [54] was 1.3 µM. The TGI [54] was 21.3 µM, the GI50 [55] was 5.13 µM and the TGI [55] was 27.5 µM.
